This is an account of results in patent publication US8734580B2, “Carbonyl propyl sulfuryl anthrapyridone sulfonic acid compounds and their preparation methods and applications” (Dalian University of Technology, priority 2011, dated 2014).

Type in all cases: physicochemical
The nature of series [1]: Evaluation of long-term stability of the dye in aqueous solvent system. Details: key: ∘: No precipitation; Δ: Slight precipitation; x: Notable precipitation. The settings on record: 20 parts dye, 70 parts water, 10 parts ethylene glycol; 50° C. for 7d, then 0° C. for 7d; filtered, precipitation graded. Here is the method: (E) Evaluation of Long-Term Stability of the Dye in Aqueous Solvent System
Heat and dissolve the system of 20 parts of dyes, 70 parts of water and 10 parts of ethylene glycol; after the solution cools down, store it airtight at a constant temperature of 50° C. for 7d; cool it down and store it at 0° C. for 7d; filter the solution and evaluate it in 3 grades based on the following benchmark: […]

Series [2] is described as follows: Ozone gas resistance of the printed images. The settings on record: ink with 6 parts dye, printed on glossy photo paper; 40 ppm ozone, 60% RH, 24° C.; grade by color difference ΔE. The method, then:
Use an ink-jet printer (Epson 270 manufactured by Epson Company), glossy photo paper (Epson) and the above described ink compositions for ink-jet printing. (2) Ozone Gas Resistance of the Printed Images Place the printed images in the Ozone Weathering Test Chamber (manufactured by China Surui Company) at 60% RH, 24° C. and 40 ppm ozone. Calculated the color difference (ΔE) before and after the test by the same method as described in (1) above and evaluate it in 3 grades based on the following benchmark: ΔE<10 ∘ ΔE<20 Δ ΔE>20 x

Series [3] in a line: Xenon lamp light-resistance test of the printed images. To be noted: ink with 6 parts dye, ink-jet printed on glossy photo paper; xenon lamp 0.36 W/m^2, 50 h, 60% RH, 24° C.; grade by color difference ΔE. Here is the method:
(§1) The mixture product M1, M2 or M3 and the pure compound obtained by separation according to the embodiments 1-3 are used as the magenta colorant, and the ink composition is prepared according to the formula shown in following table 1, and the magenta aqueous ink composition is obtained by filtering with a 0.45 μm membrane filter, wherein triethanolamine is added to adjust the pH value of the ink composition to 8-10, and deionized water is added to make the total amount reach 100 parts-by-weight (PBW).
(§2) Use an ink-jet printer (Epson 270 manufactured by Epson Company), glossy photo paper (Epson) and the above described ink compositions for ink-jet printing.
(1) Xenon Lamp Light-Resistance Test of the Printed Images
Irradiate the printed glossy photo paper manufactured by Canon and Epson with Xenon-lamp Weathering Test Chamber ZG-P (manufactured by China Surui Company) at 60% RH and 24° C. with illuminance of 0.36 W/m^2 for 50 h to test the color difference (ΔE) before and after the test. The color difference (ΔE) is calculated from the differences of values of L*, a*, b* before and after the test in the above described color measurement system (Unterlab) by the followings formula: ΔE=((difference of L*)^2+(difference of a*)^2+(difference of b*)^2)^1/2.
Three grades will be divided for the evaluation based on the following benchmark: […]

Series [4] in a line: Moisture resistance of the printed images. On the set-up: key: ∘: No bleeding; Δ: Slight bleeding; x: Notable bleeding. The settings on record: printed images at 50° C. and 90% RH for 168 h; bleeding judged by bare eyes. Here is the method:
as §1, §2
(3) Moisture Resistance of the Printed Images
Place the printed images in the Constant Temperature and Humidity Chamber (manufactured by China Surui Company) at 50° C. and 90% RH for 168 h; judge the bleeding of the ink by bare eyes before and after the test and evaluate it in 3 grades based on the following benchmark: […]

Series [5] can be described thus: Evaluation of the dye solubility in water. To be noted: grade by g/100 g water. From the text: (D) Evaluation of the Dye Solubility in Water (g/100 g Water)
Solubility of the dye in water >30 ∘
Solubility of the dye in water >15-20 Δ
Solubility of the dye in water <15 x

In the case of `O=C(CCCS(=O)(=O)c1cc(S(=O)(=O)O)c(Nc2cc(S(=O)(=O)O)c3[nH]c(=O)c(C(=O)c4cccc(S(=O)(=O)O)c4)c4c3c2C(=O)c2ccccc2-4)c(S(=O)(=O)O)c1)c1cccc(S(=O)(=O)O)c1` [Dp4], in series [1], the “Long-term stability of the dye in aqueous solvent system” value (“Long-term stability of the dye” below) is “∘”. Also, the “Ozone resistance of ink printed images” value in series [2] was “∘ (ΔE<10)”. Besides, the “Ultraviolet resistance of ink printed images” value (“Ultraviolet resistance” below) in series [3] is on record as “∘ (ΔE<10)”. Further, the “Water resistance of ink printed images” value in series [4] is given as “∘”. The “Solubility of dye in water” value in series [5] was “∘ (Solubility of the dye in water >30)”.
Turning to `O=C(c1cccc(S(=O)(=O)O)c1)c1c2c3c(c(Nc4c(S(=O)(=O)O)cc(S(=O)(=O)CCC5C(=O)c6ccccc6C5=O)cc4S(=O)(=O)O)cc(S(=O)(=O)O)c3[nH]c1=O)C(=O)c1ccccc1-2` [Dp8], the “Long-term stability of the dye” value in series [1] is listed as “∘”. For the same molecule, the “Ozone resistance of ink printed images” value in series [2] is reported as “∘ (ΔE<10)”. Further, in series [3], the “Ultraviolet resistance” value was “∘ (ΔE<10)”. For the same molecule, the “Water resistance of ink printed images” value in series [4] is on record as “∘”. In series [5], the “Solubility of dye in water” value is given as “∘ (Solubility of the dye in water >30)”.
`O=S(=O)([O-])c1cc(Nc2nc(Nc3ccc(/C=C/c4ccc(Nc5nc(Nc6cc(S(=O)(=O)[O-])cc7cc(S(=O)(=O)[O-])c(N=Nc8ccccc8)c(O)c67)nc(N6CCOCC6)n5)cc4S(=O)(=O)[O-])c(S(=O)(=O)[O-])c3)nc(N3CCOCC3)n2)c2c(O)c(N=Nc3ccccc3)c(S(=O)(=O)[O-])cc2c1.[Na+].[Na+].[Na+].[Na+].[Na+].[Na+]` [C.I. direct red 227, reference compound]: in series [1], the “Long-term stability of the dye” value is reported as “Δ”. Moreover, the “Ozone resistance of ink printed images” value in series [2] is given as “x (ΔE>20)”. In series [3], the “Ultraviolet resistance” value was “x (ΔE>20)”. The “Water resistance of ink printed images” value in series [4] is recorded as “Δ”. In series [5], the “Solubility of dye in water” value is reported as “x (Solubility of the dye in water <15)”.
Take `O=C(O)CCCS(=O)(=O)c1cc(S(=O)(=O)O)c(Nc2cc(S(=O)(=O)O)c3[nH]c(=O)c(C(=O)c4cccc(S(=O)(=O)O)c4)c4c3c2C(=O)c2ccccc2-4)c(S(=O)(=O)O)c1` [Dp2]: the “Long-term stability of the dye” value in series [1] is given as “∘”. In addition, the “Ozone resistance of ink printed images” value in series [2] is “∘ (ΔE<10)”. Moreover, in series [3], the “Ultraviolet resistance” value was “∘ (ΔE<10)”. In addition, the “Water resistance of ink printed images” value in series [4] is recorded as “∘”. Also, in series [5], the “Solubility of dye in water” value is on record as “∘ (Solubility of the dye in water >30)”.
On to `O=C(c1cccc(S(=O)(=O)O)c1)c1c2c3c(c(Nc4c(S(=O)(=O)O)cc(S(=O)(=O)CCC5C(=O)c6ccc(S(=O)(=O)O)cc6C5=O)cc4S(=O)(=O)O)cc(S(=O)(=O)O)c3[nH]c1=O)C(=O)c1ccccc1-2` (stereo not shown) [Dp10], for which the “Long-term stability of the dye” value in series [1] was “∘”. In addition, the “Ozone resistance of ink printed images” value in series [2] was “∘ (ΔE<10)”. For the same molecule, the “Ultraviolet resistance” value in series [3] was “∘ (ΔE<10)”. The “Water resistance of ink printed images” value in series [4] is given as “∘”. Besides, in series [5], the “Solubility of dye in water” value is “∘ (Solubility of the dye in water >30)”.
